These results are taken from PubChem BioAssay AID192 (DTP/NCI, 2004).

For the assay, the system named is BDF1 mice, B16 melanoma ip, median survival T/C. Description: NCI In Vivo Anticancer Drug Screen. Data for tumor model B16 Melanoma (intraperitoneal) in B6D2F1 (BDF1) mice. As to conditions: endpoint: median survival time, higher = longer survival. The essentials:
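Each result divides a survival or tumor-size measurement in the compound-treated group by the same measurement in the vehicle group.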

[1] abbreviates: dose: 100.0 mg/kg/injection, schedule: Q04DX003 (ip), vehicle: Klucel (hydroxypropylcellulose) (HPC).
[2] abbreviates: dose: 200.0 mg/kg/injection, schedule: Q04DX003 (ip), vehicle: Klucel (hydroxypropylcellulose) (HPC).
The mark [3] stands for this setting: dose: 400.0 mg/kg/injection, schedule: Q01DX009 (ip), vehicle: Klucel (hydroxypropylcellulose) (HPC).
The mark [4] stands for this setting: dose: 400.0 mg/kg/injection, schedule: Q04DX003 (ip), vehicle: Klucel (hydroxypropylcellulose) (HPC).
The mark [5] stands for this setting: dose: 100.0 mg/kg/injection, schedule: Q01DX009 (ip), vehicle: Klucel (hydroxypropylcellulose) (HPC).
Setting [6] is: dose: 200.0 mg/kg/injection, schedule: Q01DX009 (ip), vehicle: Klucel (hydroxypropylcellulose) (HPC).
Setting [7] is: dose: 12.5 mg/kg/injection, schedule: Q01DX009 (ip), vehicle: saline with Tween-80.
Setting [8] is: dose: 50.0 mg/kg/injection, schedule: Q01DX009 (ip), vehicle: saline with Tween-80.

Values joined by “and” are separate entries in the source; they are usually repeats but may differ in a detail not shown here. Equal entries are not always repeated. Inconclusive results and toxic doses are left out.

For `CC(C)[C@](O)(C(=O)OCC1=CC[N+]2([O-])CC[C@@H](O)[C@@H]12)[C@H](C)O` (stereo not given in full), the T/C is, setting by setting: (dose: 12.5 mg/kg/injection, schedule: Q01DX009 (ip), vehicle: water) 105 % of control; (dose: 16.0 mg/kg/injection, schedule: Q03HX008 (ip), vehicle: water) 93 % of control; (dose: 16.0 mg/kg/injection, schedule: Q03HX016 (ip), vehicle: water) 96 % of control; (dose: 16.0 mg/kg/injection, schedule: Q03HX024 (ip), vehicle: water) 96 % of control; (dose: 25.0 mg/kg/injection, schedule: Q01DX009 (ip), vehicle: water) 117 % of control; (dose: 32.0 mg/kg/injection, schedule: Q03HX008 (ip), vehicle: water) 99 % of control. Besides, the T/C was 94 % of control (dose: 32.0 mg/kg/injection, schedule: Q03HX016 (ip), vehicle: water); 100 % of control (dose: 32.0 mg/kg/injection, schedule: Q03HX024 (ip), vehicle: water); 113 % of control (dose: 64.0 mg/kg/injection, schedule: Q01DX009 (ip), vehicle: saline); 103 % of control (dose: 64.0 mg/kg/injection, schedule: Q01DX009 (ip), vehicle: water); 108 % of control (dose: 64.0 mg/kg/injection, schedule: Q03HX008 (ip), vehicle: water); 108 % of control (dose: 64.0 mg/kg/injection, schedule: Q03HX016 (ip), vehicle: water). For the same compound, the T/C was 120 % of control (dose: 64.0 mg/kg/injection, schedule: Q03HX024 (ip), vehicle: water); 104 % of control (dose: 100.0 mg/kg/injection, schedule: Q01DX009 (ip), vehicle: saline sonified); 103 % of control (dose: 128.0 mg/kg/injection, schedule: Q01DX001 (ip), vehicle: water); 113 % of control (dose: 128.0 mg/kg/injection, schedule: Q01DX009 (ip), vehicle: saline); 119 % of control (dose: 128.0 mg/kg/injection, schedule: Q01DX009 (ip), vehicle: water); 95 % of control and 101 % of control (dose: 128.0 mg/kg/injection, schedule: Q01DX009 (oral), vehicle: water). Also, the T/C reads like this: (dose: 128.0 mg/kg/injection, schedule: Q03HX008 (ip), vehicle: water) 123 % of control; (dose: 128.0 mg/kg/injection, schedule: Q04DX003 (ip), vehicle: water) 102 % of control; (dose: 128.0 mg/kg/injection, schedule: Q08DX002 (ip), vehicle: water) 105 % of control; (dose: 228.0 mg/kg/injection, schedule: Q01DX009 (ip), vehicle: saline) 119 % of control; (dose: 256.0 mg/kg/injection, schedule: Q01DX009 (oral), vehicle: water) 93 % of control and 96 % of control; (dose: 256.0 mg/kg/injection, schedule: Q03HX016 (ip), vehicle: water) 150 % of control. Besides, the T/C is, setting by setting: (dose: 256.0 mg/kg/injection, schedule: Q04DX003 (ip), vehicle: water) 106 % of control; (dose: 256.0 mg/kg/injection, schedule: Q08DX002 (ip), vehicle: water) 118 % of control; (dose: 512.0 mg/kg/injection, schedule: Q01DX001 (ip), vehicle: water) 113 % of control; (dose: 512.0 mg/kg/injection, schedule: Q01DX009 (ip), vehicle: water) 150 % of control and 182 % of control; (dose: 512.0 mg/kg/injection, schedule: Q01DX009 (oral), vehicle: water) 94 % of control and 95 % of control; (dose: 512.0 mg/kg/injection, schedule: Q08DX002 (ip), vehicle: water) 123 % of control. Further, the T/C by setting is: (dose: 600.0 mg/kg/injection, schedule: Q01DX009 (ip), vehicle: water) 163 % of control; (dose: 768.0 mg/kg/injection, schedule: Q01DX009 (ip), vehicle: saline) 100 % of control; (dose: 800.0 mg/kg/injection, schedule: Q01DX009 (ip), vehicle: saline sonified) 150 % of control; (dose: 1024.0 mg/kg/injection, schedule: Q01DX009 (oral), vehicle: water) 97 % of control and 99 % of control; (dose: 2048.0 mg/kg/injection, schedule: Q08DX002 (ip), vehicle: water) 169 % of control.
Take `Cc1noc2c1ncc[n+]2[O-]`: the T/C reads like this: (dose: 5.0 mg/kg/injection, schedule: Q01DX009 (ip), vehicle: saline with Tween-80) 108 % of control; (dose: 10.0 mg/kg/injection, schedule: Q01DX009 (ip), vehicle: saline with Tween-80) 119 % of control; (dose: 20.0 mg/kg/injection, schedule: Q01DX009 (ip), vehicle: saline with Tween-80) 116 % of control.
Consider `Cc1ccc(S(=O)(=O)N2CCC(O)(c3ccccc3)CC2)cc1`, for which the T/C reads like this: (dose: 20.0 mg/kg/injection, schedule: Q01DX009 (ip), vehicle: Klucel (hydroxypropylcellulose) (HPC)) 87 % of control; under setting [1], 95 % of control; under setting [2], 91 % of control; under setting [3], 119 % of control; under setting [4], 97 % of control.
For the compound `Cc1ccc(NS(=O)(=O)c2ccc(F)cc2)c(C)c1`, the T/C was 106 % of control under setting [5], 110 % of control under setting [6] and 93 % of control under setting [3].
`COc1cc2c(c(OC)c1OC)-c1c(cc3c(c1OC)OCO3)CC(C)C(C)(O)C2OC(=O)c1ccccc1` (stereo not given): the T/C runs as follows: (dose: 11.25 mg/kg/injection, schedule: Q01DX009 (ip), vehicle: saline + Tween-80 + alcohol) 106 % of control; (dose: 22.5 mg/kg/injection, schedule: Q01DX009 (ip), vehicle: saline + Tween-80 + alcohol) 97 % of control; (dose: 45.0 mg/kg/injection, schedule: Q01DX009 (ip), vehicle: saline + Tween-80 + alcohol) 97 % of control; (dose: 90.0 mg/kg/injection, schedule: Q01DX009 (ip), vehicle: saline + Tween-80 + alcohol) 91 % of control.
As for `CCC(C)C1NC(=O)C(NC(=O)c2c3nc4c(C(=O)NC5C(=O)NC(C(C)CC)C(=O)N6CCCC6C(=O)N(C)CC(=O)N(C)C(C(C)C)C(=O)OC5C)cc(N)c(C)c4oc-3c(C)c(=O)c2N)C(C)OC(=O)C(C(C)C)N(C)C(=O)CN(C)C(=O)C2CCCN2C1=O` (stereo not given), the T/C reads like this: (dose: 12.5 micrograms/kg/injection, schedule: Q01DX009 (ip), vehicle: water) 110 % of control; (dose: 25.0 micrograms/kg/injection, schedule: Q01DX009 (ip), vehicle: water) 104 % of control; (dose: 118.0 micrograms/kg/injection, schedule: Q01DX009 (ip), vehicle: water) 161 % of control; (dose: 400.0 micrograms/kg/injection, schedule: Q01DX009 (ip), vehicle: water) 159 % of control.
Regarding `CCC(CC)COC(=O)c1ccccc1C(=O)OCC(CC)CC`, the T/C under setting [7] was 87 % of control.
With `CC(C)OCCS(=O)(=O)Oc1ncc(Cl)cc1Cl`, the T/C was 100 % of control (dose: 100.0 mg/kg/injection, schedule: Q04DX003 (ip), vehicle: saline with Tween-80) and 93 % of control (dose: 200.0 mg/kg/injection, schedule: Q04DX003 (ip), vehicle: saline with Tween-80).
For `C=CC1CN2CCC1CC2C(O)c1ccnc2ccc(OC)cc12` (stereo not given) (tested in a mixture with another compound), the T/C runs as follows: under setting [8], 107 % of control; (dose: 100.0 mg/kg/injection, schedule: Q01DX009 (ip), vehicle: saline with Tween-80) 107 % of control; (dose: 200.0 mg/kg/injection, schedule: Q01DX009 (ip), vehicle: saline with Tween-80) 101 % of control.
As to `S=C=NCCc1ccccc1`, the T/C by setting is: under setting [7], 111 % of control; (dose: 25.0 mg/kg/injection, schedule: Q01DX009 (ip), vehicle: saline with Tween-80) 114 % of control; under setting [8], 96 % of control.
Turning to `O=C(CCN1CC1)OC1CCCC1`, the T/C reads like this: (dose: 0.75 mg/kg/injection, schedule: Q01DX009 (ip), vehicle: Klucel (hydroxypropylcellulose) (HPC)) 111 % of control; (dose: 1.5 mg/kg/injection, schedule: Q01DX009 (ip), vehicle: Klucel (hydroxypropylcellulose) (HPC)) 105 % of control; (dose: 3.0 mg/kg/injection, schedule: Q01DX009 (ip), vehicle: Klucel (hydroxypropylcellulose) (HPC)) 108 % of control.
Consider `Cc1ccc(NC(=S)N(C)C)cc1Cl`, for which the T/C by setting is: under setting [5], 100 % of control; under setting [1], 104 % of control; under setting [6], 88 % of control; under setting [2], 90 % of control; under setting [3], 88 % of control; under setting [4], 95 % of control.
For the compound `O=COCCc1ccccc1`, the T/C reads like this: under setting [5], 113 % of control; under setting [6], 103 % of control; under setting [3], 96 % of control.
